Test results taken from ChEMBL document CHEMBL3877279, “Design, synthesis, in-silico and biological evaluation of novel donepezil derivatives as multi-target-directed ligands for the treatment of Alzheimer's disease” (Eur J Med Chem, 2017).
Calls of active or inactive are those of the source. The rule behind the calls is not given here.

Legend:
Acetylcholinesterase = Acetylcholinesterase (Electrophorus electricus, UniProt O42275); assay: Inhibition of Electric eel AChE using acetylthiocholine iodide as substrate preincubated for 5 mins followed by substrate addition measured after 2 mins by Ellman's method
Sequence of Acetylcholinesterase (O42275 whole entry): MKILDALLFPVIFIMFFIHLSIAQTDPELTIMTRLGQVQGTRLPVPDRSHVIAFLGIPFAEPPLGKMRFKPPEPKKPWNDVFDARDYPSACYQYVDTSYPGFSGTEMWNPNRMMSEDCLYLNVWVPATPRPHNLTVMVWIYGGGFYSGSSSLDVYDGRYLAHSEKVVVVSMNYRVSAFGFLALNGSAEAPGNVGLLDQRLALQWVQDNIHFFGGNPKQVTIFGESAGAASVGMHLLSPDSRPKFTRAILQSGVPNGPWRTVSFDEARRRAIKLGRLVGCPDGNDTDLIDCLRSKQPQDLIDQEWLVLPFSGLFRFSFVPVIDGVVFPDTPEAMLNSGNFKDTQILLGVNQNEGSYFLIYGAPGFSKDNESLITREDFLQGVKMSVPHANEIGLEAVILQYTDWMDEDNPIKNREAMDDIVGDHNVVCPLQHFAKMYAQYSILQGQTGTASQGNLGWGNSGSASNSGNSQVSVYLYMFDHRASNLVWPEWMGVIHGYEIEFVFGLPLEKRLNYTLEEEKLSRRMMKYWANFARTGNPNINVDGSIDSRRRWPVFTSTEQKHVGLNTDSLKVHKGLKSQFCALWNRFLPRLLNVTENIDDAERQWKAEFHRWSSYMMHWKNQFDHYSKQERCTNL

Cholinesterase = Cholinesterase (Equus caballus, UniProt P81908); assay: Inhibition of equine serum BuChE using butyrylthiocholine iodide as substrate preincubated for 5 mins followed by substrate addition measured after 2 mins by Ellman's method; format: ADME
Sequence of Cholinesterase (P81908 whole entry): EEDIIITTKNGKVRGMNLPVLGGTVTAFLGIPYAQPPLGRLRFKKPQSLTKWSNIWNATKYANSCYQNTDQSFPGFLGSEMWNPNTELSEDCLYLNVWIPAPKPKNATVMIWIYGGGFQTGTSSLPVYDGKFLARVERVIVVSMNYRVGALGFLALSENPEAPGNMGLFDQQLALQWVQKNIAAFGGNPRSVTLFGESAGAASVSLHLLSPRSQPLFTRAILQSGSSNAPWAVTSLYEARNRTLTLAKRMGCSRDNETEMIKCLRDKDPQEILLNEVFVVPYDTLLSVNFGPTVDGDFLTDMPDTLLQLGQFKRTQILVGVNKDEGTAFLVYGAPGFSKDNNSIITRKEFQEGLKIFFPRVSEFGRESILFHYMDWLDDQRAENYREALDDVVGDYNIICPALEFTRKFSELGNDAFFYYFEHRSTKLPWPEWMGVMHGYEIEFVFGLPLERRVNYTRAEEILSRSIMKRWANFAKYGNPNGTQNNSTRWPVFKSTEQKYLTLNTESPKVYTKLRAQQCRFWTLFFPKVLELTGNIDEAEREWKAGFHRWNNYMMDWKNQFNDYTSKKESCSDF

[1] = Selectivity index, ratio of IC50 for equine serum BuChE to IC50 for Electric eel AChE
[2] = biological target: T1, Amyloid-beta precursor protein (Homo sapiens, UniProt P05067); assay: Inhibition of HFIP-pretreated amyloid beta (1 to 42) (unknown origin) self-induced aggregation at 25 uM after 48 hrs by thioflavin-T fluorescence assay relative to control
T1 sequence (P05067 whole entry): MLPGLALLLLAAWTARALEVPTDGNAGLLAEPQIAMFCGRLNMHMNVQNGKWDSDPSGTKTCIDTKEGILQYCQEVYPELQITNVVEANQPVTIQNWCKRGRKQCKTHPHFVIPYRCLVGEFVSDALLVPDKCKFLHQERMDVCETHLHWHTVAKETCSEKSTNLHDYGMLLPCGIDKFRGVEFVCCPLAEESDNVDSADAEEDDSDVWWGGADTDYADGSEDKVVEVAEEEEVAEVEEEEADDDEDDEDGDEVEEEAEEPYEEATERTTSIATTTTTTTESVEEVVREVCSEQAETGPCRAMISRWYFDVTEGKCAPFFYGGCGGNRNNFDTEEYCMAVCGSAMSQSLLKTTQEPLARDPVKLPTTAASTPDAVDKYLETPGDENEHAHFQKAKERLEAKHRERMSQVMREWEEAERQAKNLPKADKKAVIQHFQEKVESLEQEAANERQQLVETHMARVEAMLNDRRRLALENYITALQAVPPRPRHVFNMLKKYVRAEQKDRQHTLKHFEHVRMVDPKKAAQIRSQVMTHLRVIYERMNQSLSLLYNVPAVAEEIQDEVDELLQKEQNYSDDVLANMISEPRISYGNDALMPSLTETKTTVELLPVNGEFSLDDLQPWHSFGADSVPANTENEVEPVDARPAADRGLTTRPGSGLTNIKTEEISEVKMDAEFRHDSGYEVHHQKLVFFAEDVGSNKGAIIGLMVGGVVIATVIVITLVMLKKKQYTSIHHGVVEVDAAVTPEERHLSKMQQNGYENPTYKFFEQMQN

[3] = biological target: T1, Amyloid-beta precursor protein; assay: Inhibition of HFIP-pretreated amyloid beta (1 to 42) (unknown origin) self-induced aggregation after 48 hrs by thioflavin-T fluorescence assay
[4] = biological target: T1, Amyloid-beta precursor protein; assay: Potency index, ratio of curcumin IC50 to compound IC50 for HFIP-pretreated amyloid beta (1 to 42) (unknown origin) self-induced aggregation
[5] = biological target: T1, Amyloid-beta precursor protein; assay: Inhibition of amyloid beta (1 to 42) (unknown origin) fibril formation at 25 uM after 48 hrs by uranyl acetate staining based transmission electron microscopic method
[6] = Antioxidant activity assessed as trolox equivalent of AAPH radical scavenging activity at 1 to 25 uM preincubated for 15 mins followed by AAPH addition measured every min for 80 mins by ORAC-FL assay; format: functional
[7] = Cytotoxicity against human SH-SY5Y cells assessed as reduction in cell viability after 48 hrs by MTT assay; format: toxicity, cell-based
[8] = Cytotoxicity against human SH-SY5Y cells assessed as cell viability at 1 uM after 48 hrs by MTT assay relative to control; format: toxicity, cell-based; conditions: read-out: Activity
[9] = Cytotoxicity against human SH-SY5Y cells assessed as cell viability at 5 uM after 48 hrs by MTT assay relative to control; format: toxicity, cell-based; conditions: read-out: Activity
[10] = Cytotoxicity against human SH-SY5Y cells assessed as cell viability at 10 uM after 48 hrs by MTT assay relative to control; format: toxicity, cell-based; conditions: read-out: Activity
[11] = Cytotoxicity against human SH-SY5Y cells assessed as cell viability at 25 uM after 48 hrs by MTT assay relative to control; format: toxicity, cell-based; conditions: read-out: Activity
[12] = Cytotoxicity against human SH-SY5Y cells assessed as cell viability at 50 uM after 48 hrs by MTT assay relative to control; format: toxicity, cell-based; conditions: read-out: Activity
[13] = Cytotoxicity against human SH-SY5Y cells assessed as cell viability at 75 uM after 48 hrs by MTT assay relative to control; format: toxicity, cell-based; conditions: read-out: Activity
[14] = Cytotoxicity against human SH-SY5Y cells assessed as cell viability at 100 uM after 48 hrs by MTT assay relative to control; format: toxicity, cell-based; conditions: read-out: Activity
SH-SY5Y [15] = assay: Neuroprotective activity against H2O2-induced oxidative stress in human SH-SY5Y cells assessed as inhibition of ROS accumulation at 10 to 20 uM after 24 hrs by DCFH-DA probe based fluorescence assay; format: functional, cell-based
SH-SY5Y [16] = assay: Neuroprotective activity against H2O2-induced oxidative stress in human SH-SY5Y cells assessed as increase in cell viability at 5 to 20 uM after 24 hrs by MTT assay; format: functional, cell-based
SH-SY5Y [17] = assay: Neuroprotective activity against H2O2-induced morphological changes in human SH-SY5Y cells assessed as decrease in cell rounding at 20 uM after 24 hrs by phase contrast microscopic method; format: functional, cell-based
SH-SY5Y [18] = assay: Neuroprotective activity against H2O2-induced morphological changes in human SH-SY5Y cells assessed as decrease in cell vacuolation at 20 uM after 24 hrs by phase contrast microscopic method; format: functional, cell-based
SH-SY5Y [19] = assay: Neuroprotective activity against H2O2-induced morphological changes in human SH-SY5Y cells assessed as decrease in floated appearance at 20 uM after 24 hrs by phase contrast microscopic method; format: functional, cell-based
SH-SY5Y [20] = assay: Neuroprotective activity against amyloid beta (1 to 42)-induced neurodegeneration in human SH-SY5Y cells assessed as increase in cell viability at 20 uM after 48 hrs by MTT assay; format: functional, cell-based
SH-SY5Y [21] = assay: Neuroprotective activity against amyloid beta (1 to 42)-induced morphological changes in human SH-SY5Y cells assessed as decrease in shrinked cell body at 20 uM after 48 hrs by phase contrast microscopic method; format: functional, cell-based
SH-SY5Y [22] = assay: Neuroprotective activity against amyloid beta (1 to 42)-induced morphological changes in human SH-SY5Y cells assessed as decrease in fading synapses at 20 uM after 48 hrs by phase contrast microscopic method; format: functional, cell-based
SH-SY5Y [23] = assay: Neuroprotective activity against amyloid beta (1 to 42)-induced morphological changes in human SH-SY5Y cells assessed as decrease in loss of adherence at 20 uM after 48 hrs by phase contrast microscopic method; format: functional, cell-based
SH-SY5Y [24] = assay: Neuroprotective activity against amyloid beta (1 to 42)-induced morphological changes in human SH-SY5Y cells assessed as decrease in fragmented or rounded floating cells at 20 uM after 48 hrs by phase contrast microscopic method; format: functional, cell-based
SH-SY5Y [25] = assay: Neuroprotective activity against H2O2-induced oxidative stress in human SH-SY5Y cells assessed as inhibition of ROS accumulation after 24 hrs by DCFH-DA probe based fluorescence assay; format: functional, cell-based
[26] = Effect on basal ROS level in human SH-SY5Y cells at 5 to 20 uM after 24 hrs by DCFH-DA probe based fluorescence assay; format: ADME, cell-based
SH-SY5Y [27] = assay: Neuroprotective activity against H2O2-induced oxidative stress in human SH-SY5Y cells assessed as increase in cell viability at 10 uM after 24 hrs by MTT assay; format: functional, cell-based
[28] = biological target: Acetylcholinesterase (Electrophorus electricus) (UniProt O42275); assay: Mixed-type inhibition of Electric eel AChE at 10 to 40 nM using varying levels of acetylthiocholine iodide as substrate preincubated for 15 mins followed by substrate addition by Lineweaver-Burk plot analysis
Sequence of Acetylcholinesterase (Electrophorus electricus) (O42275 24-633 limits assumed): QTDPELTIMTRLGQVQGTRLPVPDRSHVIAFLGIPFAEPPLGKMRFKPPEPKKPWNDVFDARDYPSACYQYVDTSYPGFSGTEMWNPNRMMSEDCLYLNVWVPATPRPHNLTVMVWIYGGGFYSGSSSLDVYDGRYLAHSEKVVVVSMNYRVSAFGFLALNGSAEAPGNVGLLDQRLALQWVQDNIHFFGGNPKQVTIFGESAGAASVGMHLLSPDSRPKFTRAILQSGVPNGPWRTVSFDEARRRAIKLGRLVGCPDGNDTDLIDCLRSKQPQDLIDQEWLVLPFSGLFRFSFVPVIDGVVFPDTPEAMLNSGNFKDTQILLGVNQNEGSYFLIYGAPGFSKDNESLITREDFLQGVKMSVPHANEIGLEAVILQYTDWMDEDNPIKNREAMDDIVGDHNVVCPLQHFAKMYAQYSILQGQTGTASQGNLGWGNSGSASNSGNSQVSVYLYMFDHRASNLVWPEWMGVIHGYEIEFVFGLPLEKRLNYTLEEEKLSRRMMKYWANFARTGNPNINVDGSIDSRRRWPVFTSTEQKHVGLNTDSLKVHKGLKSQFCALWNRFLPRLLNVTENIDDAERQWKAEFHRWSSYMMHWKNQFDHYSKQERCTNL

SH-SY5Y [29] = assay: Neuroprotective activity against H2O2-induced oxidative stress in human SH-SY5Y cells assessed as increase in cell viability at 20 uM after 24 hrs by MTT assay; format: functional, cell-based
SH-SY5Y [30] = assay: Neuroprotective activity against amyloid beta (1 to 42)-induced neurodegeneration in human SH-SY5Y cells assessed as increase in cell viability at 10 uM after 48 hrs by MTT assay; format: functional, cell-based

COc1cc2c(cc1OC)C(=O)/C(=C/c1ccc(N3CCN(C(c4ccc(F)cc4)c4ccc(F)cc4)CC3)cc1)C2
IC50 (Acetylcholinesterase): 0.045 µM | IC50 (Cholinesterase): 3.01 µM | Ratio IC50 [1]: 67 | inhibition [2]: 83.7% | IC50 [3]: 7.4 µM | Ratio IC50 [4]: 2.96 | inhibition [5]: Active | Activity (umolequiv/umol) [6]: 2.98 | Activity [7]: Dose-dependent effect | viability at 48 h, 1 µM [8]: 97.1% | viability at 48 h, 5 µM [9]: 95.4% | viability at 48 h, 10 µM [10]: 95.7% | viability at 48 h, 25 µM [11]: 92.8% | viability at 48 h, 50 µM [12]: 88.6% | viability at 48 h, 75 µM [13]: 84.3% | viability at 48 h, 100 µM [14]: 80.3% | inhibition (SH-SY5Y [15]): Active | Activity (SH-SY5Y [16]): Active | Activity (SH-SY5Y [17]): Active | Activity (SH-SY5Y [18]): Active | Activity (SH-SY5Y [19]): Active | Activity (SH-SY5Y [20]): Active | Activity (SH-SY5Y [21]): Active | Activity (SH-SY5Y [22]): Active | Activity (SH-SY5Y [23]): Active | Activity (SH-SY5Y [24]): Active

COc1cc2c(cc1OC)C(=O)/C(=C/c1ccc(N3CCN(C(=O)c4ccoc4)CC3)cc1)C2
IC50 (Acetylcholinesterase): 0.034 µM | IC50 (Cholinesterase): 1.97 µM | inhibition [2]: 80.4% | IC50 [3]: 10.9 µM | Activity (umolequiv/umol) [6]: 3.89 | Activity [7]: Dose-dependent effect | viability at 48 h, 1 µM [8]: 96% | viability at 48 h, 5 µM [9]: 94.4% | viability at 48 h, 10 µM [10]: 92.3% | viability at 48 h, 25 µM [11]: 90.1% | viability at 48 h, 50 µM [12]: 86.9% | viability at 48 h, 75 µM [13]: 83.7% | viability at 48 h, 100 µM [14]: 81.1% | inhibition (SH-SY5Y [25]): Dose-dependent effect | Activity [26]: Non-Toxic | Activity (SH-SY5Y [27]): Active | Activity (SH-SY5Y [17]): Active | Activity (SH-SY5Y [18]): Active | Activity (SH-SY5Y [19]): Active | Activity (SH-SY5Y [20]): Active | Activity (SH-SY5Y [21]): Active | Activity (SH-SY5Y [22]): Active | Activity (SH-SY5Y [23]): Active | Activity (SH-SY5Y [24]): Active

COc1cc2c(cc1OC)C(=O)/C(=C/c1ccc(N3CCN(c4ncccn4)CC3)cc1)C2
IC50 (Acetylcholinesterase): 0.025 µM | IC50 (Cholinesterase): 2.43 µM | Ratio IC50 [1]: 97.3 | inhibition [28]: Active | inhibition [2]: 81.6% | IC50 [3]: 9.9 µM | inhibition [5]: Active | Activity (umolequiv/umol) [6]: 2.34 | Activity [7]: Dose-dependent effect | viability at 48 h, 1 µM [8]: 98.5% | viability at 48 h, 5 µM [9]: 96.1% | viability at 48 h, 10 µM [10]: 94.7% | viability at 48 h, 25 µM [11]: 92.8% | viability at 48 h, 50 µM [12]: 89.3% | viability at 48 h, 75 µM [13]: 85.7% | viability at 48 h, 100 µM [14]: 82.4% | inhibition (SH-SY5Y [15]): Active | Activity (SH-SY5Y [29]): Active | Activity (SH-SY5Y [17]): Active | Activity (SH-SY5Y [18]): Active | Activity (SH-SY5Y [19]): Active | Activity (SH-SY5Y [30]): Active | Activity (SH-SY5Y [21]): Active | Activity (SH-SY5Y [22]): Active | Activity (SH-SY5Y [23]): Active | Activity (SH-SY5Y [24]): Active
